Values quoted from earlier work as cited in patent publication US20140287088A1, “Calcium Citrate-Malate as source of calcium to prevent bone diseases and increase bone strength in young animals and birds, especially young poultry, dogs, cats, swine, calves, and horses; and laying hens” (priority 2013, published 2014).

Columns and labels:
[1] = humans; CCM-fortified food vs food fortified with calcium carbonate
rats = details: by 12 wk

Substance: calcium citrate-malate [CC-M]
- calcium absorption and retention [1]: significantly greater
- more trabecular bone than rats fed calcium carbonate (rats): 44%
